Source: patent US8981091B2, “Pest control composition” (Sumitomo Chemical Company, Limited, priority 2011, dated 2015)

How the values were obtained:
Assay type in all cases: in vivo
Tetranychus urticae [1] = experiment: Test Example 1: foliar spray on kidney bean leaves carrying Tetranychus urticae adults, insect death rate; settings: etoxazole 0.000781 ppm alone, 2 days after treatment
Description: (§1) Kidney beans (Nagauzura saitou) were planted (one plant per container) in plastic containers (volume: 90 ml) and grown until the primary leaves had fully expanded. Only one leaf of each kidney bean plant was left on the plant and all the other leaves were removed from the plant. Then, 5 adults of Tetranychus urticae were released on each leaf.
(§2) A suspension concentrate containing 10.0% by weight of etoxazole [product name: Baroque (registered trademark) flowable, manufactured by Kyoyu Agri Co., Ltd.] was diluted with water containing 0.02% by volume of a spreading agent [product name: Sindain (registered trademark), manufactured by Sumitomo Chemical Co., […]
(§3) A reference standard containing 99.9% by weight of fenazaquin was diluted with water containing 0.02% by volume of a spreading agent [product name: Sindain (registered trademark), manufactured by Sumitomo Chemical Co., Ltd.] so that the concentration of fenazaquin became 50 ppm. […]
Three days after the release of the insects, each test solution was sprayed onto the leaves of kidney bean plants and the leaves were air-dried. […] An insect death rate was calculated according to the following equation. […]

Tetranychus urticae [2] = experiment: Test Example 2: foliar spray on kidney bean leaves carrying Tetranychus urticae adults, insect death rate; settings: etoxazole 0.8 ppm alone, 3 days after treatment
Description: as §1, with “10” for “5”
as §2, §3
Four days after the release of the insects, each test solution was sprayed onto the leaves of kidney bean plants and the leaves were air-dried. […] An insect death rate was calculated according to the following equation. […]

Bemisia tabaci = experiment: Test Example 3: spray on cabbage seedlings carrying Bemisia tabaci, insect death rate; settings: 2 days after treatment
Description: Cabbages (Green ball) were planted (one plant per container) in plastic containers (volume: 90 ml) and grown until the third to fourth leaf stage. Only one leaf of each cabbage plant was left on the plant and all the other leaves were removed from the plant. The plastic containers were put into a net cage containing a lot of living Bemisia tabaci and allowed to stand for 24 hours. After that, the plastic containers were taken out from the cage and the number of living insects (Bemisia tabaci) on the cabbage seedlings was determined (This is called the “number of insects before treatment”).
A suspension concentrate containing 10.0% by weight of etoxazole [product name: Baroque (registered trademark) flowable, manufactured by Kyoyu Agri Co., Ltd.] was diluted with water containing 0.02% by volume of a spreading agent [product name: Sindain (registered trademark), manufactured by Sumitomo Chemical Co., Ltd.] so that the concentration of etoxazole became 800 ppm.
A reference standard containing 99.9% by weight of fenazaquin was diluted with water containing 0.02% by volume of a spreading agent [product name: Sindain (registered trademark), manufactured by Sumitomo Chemical Co., Ltd.] so that the concentration of fenazaquin became 50 ppm.
The water dilution of etoxazole, the water dilution of fenazaquin, and water containing 0.02% by volume of a spreading agent [product name: Sindain (registered trademark), manufactured by Sumitomo Chemical Co., Ltd.] were mixed to prepare a test solution with a predetermined concentration of etoxazole and/or fenazaquin.
Then, each test solution was sprayed onto the plastic containers to sufficiently soak cabbage seedlings, and allowed to stand for room temperature (about 25° C.). Two days after the treatment, the number of living insects (Bemisia tabaci) on the cabbage seedlings was determined (This is called the “number of insects after treatment”).
An insect death rate was calculated according to the following equation. For each treatment there are duplicates. […]

SMILES: CCOc1cc(C(C)(C)C)ccc1C1COC(c2c(F)cccc2F)=N1 (centres unmarked) [Etoxazole, 2-(2,6-difluorophenyl)-4-[4-(1,1-dimethylethyl)-2-ethoxyphenyl]-4,5-dihydrooxazole]
- Insect death rate (%) (Tetranychus urticae [1]): 10%
- Insect death rate (%) (Tetranychus urticae [2]): 15%
- Insect death rate (%) (Bemisia tabaci; etoxazole 50 ppm alone): 15%
- Insect death rate (%) (Bemisia tabaci; etoxazole 200 ppm alone): 17%
- Insect death rate (%) (Bemisia tabaci; etoxazole 800 ppm alone): 32%
